ChEMBL document CHEMBL1201862, “PubChem BioAssay data set” (2004)
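Dose response: 5 concentrations. Exposure: 48 h. Format: 96-well plates. Endpoint: linear interpolation; highest concentration if not reached. Here, GI50 denotes the concentration required for 50% inhibition of growth.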 Activity calls are given as the source filed them. Rule as the data show it: active = GI50 up to about 1.1 µM and inactive = higher.

How the values were obtained:
Test in all cases: NCI tumour cell line growth inhibition, 48 h
CAKI-1 = test system: CAKI-1
COLO 205 = test system: COLO 205
HCC 2998 = test system: HCC 2998
HCT-15 = test system: HCT-15
HT-29 = test system: HT-29
KM12 = test system: KM12
MCF7 = test system: MCF7
MDA-N = test system: MDA-N
MOLT-4 = test system: MOLT-4
NCI-H226 = test system: NCI-H226
NCI/ADR-RES = test system: NCI/ADR-RES
OVCAR-3 = test system: OVCAR-3
RPMI-8226 = test system: RPMI-8226
SF-295 = test system: SF-295
SK-MEL-28 = test system: SK-MEL-28
SNB-19 = test system: SNB-19
SNB-75 = test system: SNB-75
UACC-257 = test system: UACC-257
UACC-62 = test system: UACC-62
K562 = test system: K562

Compound | GI50 (CAKI-1) | GI50 (COLO 205) | GI50 (HCC 2998) | GI50 (HCT-15) | GI50 (HT-29) | GI50 (KM12) | GI50 (MCF7) | GI50 (MDA-N) | GI50 (MOLT-4) | GI50 (NCI-H226) | GI50 (NCI/ADR-RES) | GI50 (OVCAR-3) | GI50 (RPMI-8226) | GI50 (SF-295) | GI50 (SK-MEL-28) | GI50 (SNB-19) | GI50 (SNB-75) | GI50 (UACC-257) | GI50 (UACC-62) | GI50 (K562)
N#CC1=CNc2sccc2S1(=O)=O | > 100 µM (inactive) | > 100 µM (inactive) | 39.8 µM (inactive) | 61.9 µM | > 100 µM (inactive) | 1.68 µM (inactive) | > 100 µM (inactive) | > 100 µM (inactive) | 39.6 µM (inactive) | > 100 µM (inactive) | > 100 µM (inactive) | > 100 µM (inactive) | > 100 µM (inactive) | > 100 µM (inactive) | > 100 µM (inactive) | > 100 µM (inactive) | > 100 µM (inactive) | > 100 µM (inactive) | > 100 µM (inactive) | 
CCOC(=O)NCC(=O)NCC(=O)NCC(N)=O | > 100 µM (inactive) | > 100 µM (inactive) | > 100 µM (inactive) | > 100 µM | > 100 µM (inactive) | > 100 µM (inactive) | > 100 µM (inactive) | > 100 µM (inactive) | > 100 µM (inactive) | > 100 µM (inactive) | > 100 µM (inactive) | > 100 µM (inactive) | > 100 µM (inactive) | > 100 µM (inactive) | > 100 µM (inactive) | > 100 µM (inactive) |  | > 100 µM (inactive) | > 100 µM (inactive) | > 100 µM (inactive)
CC(=O)ON(OC(C)=O)c1ccc(C)cc1 | > 100 µM (inactive) | > 100 µM (inactive) | > 100 µM (inactive) | > 100 µM | > 100 µM (inactive) | > 100 µM (inactive) | > 100 µM (inactive) | > 100 µM (inactive) | > 100 µM (inactive) |  | > 100 µM (inactive) | > 100 µM (inactive) | > 100 µM (inactive) | > 100 µM (inactive) | > 100 µM (inactive) | > 100 µM (inactive) | > 100 µM (inactive) | > 100 µM (inactive) | > 100 µM (inactive) | > 100 µM (inactive)
O=C1/C(=C/c2ccccc2O)N=C(c2ccccc2)N1C1Nc2cc3c(cc2S1)NC(N1C(=O)/C(=C/c2ccccc2O)N=C1c1ccccc1)S3 (stereo unspecified) | 56.5 µM (inactive) |  | 33.6 µM (inactive) | 13.5 µM | 42.3 µM (inactive) | 41.3 µM (inactive) | 2.13 µM (inactive) | 14 µM (inactive) | 35.5 µM (inactive) | > 100 µM (inactive) | 10.5 µM (inactive) | 55.1 µM (inactive) | 26.1 µM (inactive) | 42.1 µM (inactive) | 65.3 µM (inactive) |  |  | 66.8 µM (inactive) |  | 29.9 µM (inactive)
N#Cc1c(-c2ccccc2)c(C#N)c(=O)n(NS(=O)(=O)c2ccccc2)c1O | > 100 µM (inactive) | > 100 µM (inactive) | > 100 µM (inactive) | > 100 µM | > 100 µM (inactive) | > 100 µM (inactive) | > 100 µM (inactive) | > 100 µM (inactive) | > 100 µM (inactive) | > 100 µM (inactive) | > 100 µM (inactive) |  | > 100 µM (inactive) | > 100 µM (inactive) | > 100 µM (inactive) | > 100 µM (inactive) | > 100 µM (inactive) | > 100 µM (inactive) | > 100 µM (inactive) | > 100 µM (inactive)
CC1CN=C(Nc2ccc(S(N)(=O)=O)cc2)S1 (stereo unspecified) | > 100 µM (inactive) | > 100 µM (inactive) | > 100 µM (inactive) | > 100 µM | > 100 µM (inactive) | > 100 µM (inactive) | 78.5 µM (inactive) | > 10 µM (inactive) | > 100 µM (inactive) |  | > 100 µM (inactive) | > 100 µM (inactive) | > 100 µM (inactive) | > 100 µM (inactive) | > 100 µM (inactive) | > 100 µM (inactive) | > 100 µM (inactive) | > 100 µM (inactive) |  | > 100 µM (inactive)
Cc1cc2[nH]c3c(C#N)c(-c4ccccc4)c(CN4CCOCC4)c(=O)n3c2cc1C | > 100 µM (inactive) | > 100 µM (inactive) | > 100 µM (inactive) | > 100 µM |  | > 100 µM (inactive) | > 100 µM (inactive) | > 100 µM (inactive) |  | > 100 µM (inactive) | > 100 µM (inactive) | > 100 µM (inactive) | > 100 µM (inactive) | > 100 µM (inactive) | > 100 µM (inactive) | > 100 µM (inactive) | 40.7 µM (inactive) | > 100 µM (inactive) |  | 
CC(C)C(CC(=O)OCC(CO)OC(=O)CC(C(C)C)C(C)C)C(C)C (stereo unspecified) | 12.3 µM (inactive) | 6.73 µM (inactive) | 15.8 µM (inactive) | 16.9 µM | 17.4 µM (inactive) | 15.7 µM (inactive) | 17.5 µM (inactive) | 13.6 µM (inactive) | 10.1 µM (inactive) | 16.1 µM (inactive) | 13.5 µM (inactive) | 13.9 µM (inactive) |  | 6.27 µM (inactive) | 16.2 µM (inactive) | 14.7 µM (inactive) | 10.2 µM (inactive) | 17.1 µM (inactive) | 15.8 µM (inactive) | 6 µM (inactive)
COC(=O)/C=C/[C@H]1[C@H](C)N1S(=O)(=O)c1ccc(C)cc1 (stereo partly specified) | > 100 µM (inactive) | > 100 µM (inactive) | > 100 µM (inactive) | > 100 µM | > 100 µM (inactive) | > 100 µM (inactive) | 64.3 µM (inactive) | > 100 µM (inactive) | 70.5 µM (inactive) | > 100 µM (inactive) | > 100 µM (inactive) | 58.7 µM (inactive) | 51.6 µM (inactive) | > 100 µM (inactive) | > 100 µM (inactive) | > 100 µM (inactive) |  | > 100 µM (inactive) | > 100 µM (inactive) | > 100 µM (inactive)
Cc1nc2c(o1)C(=O)c1ccccc1/C2=N/c1ccccn1 | 25.8 µM (inactive) | 35.6 µM (inactive) | 21.9 µM (inactive) | 14 µM | 18.8 µM (inactive) | 21.7 µM (inactive) | 17.7 µM (inactive) | 17.3 µM (inactive) | 17.7 µM (inactive) |  | 15.8 µM (inactive) | 4.66 µM (inactive) | 17.4 µM (inactive) | > 100 µM (inactive) | 18.8 µM (inactive) | 14.8 µM (inactive) | 4.57 µM (inactive) | 14 µM (inactive) | 20 µM (inactive) | 29.8 µM (inactive)
COc1cc2c(cc1OC)C(=O)/C(=C/c1ccc([N+](=O)[O-])cc1)CC2 | > 10 µM (inactive) | > 10 µM (inactive) | > 10 µM (inactive) | > 10 µM | > 10 µM (inactive) | > 10 µM (inactive) | > 10 µM (inactive) | > 10 µM (inactive) | > 10 µM (inactive) | > 10 µM (inactive) | > 10 µM (inactive) | > 10 µM (inactive) | > 10 µM (inactive) | > 10 µM (inactive) | > 10 µM (inactive) | > 10 µM (inactive) |  | > 10 µM (inactive) | > 10 µM (inactive) | > 10 µM (inactive)
COc1ccc(N(C(=O)Nc2ccc(Cl)c(Cl)c2)c2ccccc2)cc1 | > 10 µM (inactive) | > 10 µM (inactive) | > 10 µM (inactive) | > 10 µM | > 10 µM (inactive) | > 10 µM (inactive) | > 10 µM (inactive) | > 10 µM (inactive) | > 10 µM (inactive) | > 10 µM (inactive) | > 10 µM (inactive) | > 10 µM (inactive) |  | > 10 µM (inactive) | > 10 µM (inactive) | > 10 µM (inactive) |  | > 10 µM (inactive) | > 10 µM (inactive) | > 10 µM (inactive)
COc1ccc(-c2c3ccccc3c(-c3ccc(OCCBr)cc3)c3ccccc23)cc1 | > 100 µM (inactive) | > 100 µM (inactive) | > 100 µM (inactive) | > 100 µM | > 100 µM (inactive) | > 100 µM (inactive) | > 100 µM (inactive) | > 100 µM (inactive) | > 100 µM (inactive) | > 100 µM (inactive) | > 100 µM (inactive) | > 100 µM (inactive) | > 100 µM (inactive) | > 100 µM (inactive) | > 100 µM (inactive) | > 100 µM (inactive) | 43.9 µM (inactive) | > 100 µM (inactive) | > 100 µM (inactive) | 
C=C1C(=O)CCC1C(=O)O (stereo unspecified) |  | > 100 µM (inactive) | > 100 µM (inactive) | > 100 µM | > 100 µM (inactive) | > 100 µM (inactive) | > 100 µM (inactive) | > 100 µM (inactive) | > 100 µM (inactive) | > 100 µM (inactive) | > 100 µM (inactive) | > 100 µM (inactive) | > 100 µM (inactive) | > 100 µM (inactive) | > 100 µM (inactive) | > 100 µM (inactive) | 11.8 µM (inactive) | 61.8 µM (inactive) | > 100 µM (inactive) | > 100 µM (inactive)
Cc1cc(S(=O)(=O)Nc2nc3ccccc3c(=O)n2N)c(S)cc1Cl | 31.8 µM (inactive) | > 100 µM (inactive) | 49.3 µM (inactive) | 35.5 µM | 53 µM (inactive) | 37.2 µM (inactive) | 71.1 µM (inactive) | 38.1 µM (inactive) | 47.6 µM (inactive) | 21.7 µM (inactive) | 24.5 µM (inactive) | 44.6 µM (inactive) | 34.7 µM (inactive) | 28.3 µM (inactive) | 67.9 µM (inactive) |  |  | 59.8 µM (inactive) | 20.7 µM (inactive) | 47.2 µM (inactive)
